Here are results for two substances from patent publication US20140228299A1, “PROPHYLACTIC AND THERAPEUTIC AGENT FOR NEUROLOGICAL DISEASES USING LIPOPROTEINS AND PROPHYLACTIC AND THERAPEUTIC METHOD FOR NEUROLOGICAL DISEASES” (National University Corporation Tokyo Medical and Dental …, priority 2011, published 2014).

Assay [1] relates to retinal ganglion cells of GLAST knockout mouse. The assay is described as follows: Intravitreal administration to GLAST knockout mouse (normal-pressure glaucoma model), counting of retinal ganglion cells. The assay is classed as in vivo. The method, then: This example is an experiment to investigate whether the reconstituted lipoprotein containing apolipoprotein E3 (LP) inhibits apoptosis of the […] of a GLAST knockout mouse as a normal-pressure glaucoma model animal. […] The eyeball was removed at the time of six weeks, followed by fixing with paraffin, staining with hematoxylin-eosin, and counting the retinal glia cells on the retina.
Three-week-old GLAST+/− or GLAST−/− mice were anesthetized by intraperitoneal injection of 50 mg/kg of pentobarbital sodium. […]
The eyeball of a six-week-old mouse was removed and fixed overnight at 4° C. using Super Fix (KY-500, Kurabo. Osaka), followed by removing the cornea and the crystalline lens under a stereoscopic microscope. […] Five sections were selected from each of the continuous sections and the number of the cells within the glia cell layer was counted in a range extending from one end of the retinal section to the other end through the optic nerve. More than 2,000 cells were counted on 10 sections of each retina.

Assay [2] concerns retinal ganglion cells. The assay is described as follows: Glutamic acid-induced apoptosis of cultured retinal ganglion cells (Hoechst 33342 or calcein AM/propidium iodide staining). The assay is classed as cell-based, rat. The protocol: The primary culture of the retinal glia cells was carried out using two-day-old Sprague Dawley (SD) baby rats in accordance with a somewhat modified method (Hayashi et al., J. Biol. Chem. 2009) of the method of Barres et al. (Barres, et al., 1988). The isolated retinal glia cells (RGC) were suspended in a base culture medium of a RGC medium (1 mM glutamine, 5 μg/mL insulin, 60 μg/mL N-acetylcysteine, 62 ng/mL progesterone, 16 μg/mL putrescine, 40 ng/mL sodium selenite, 0.1 mg/mL bovine serum albumin, 40 ng/mL triiodothyronine, 0.1 mg/mL transferrin, 1 mM sodium pyruvate, 2% B27 supplement (Invitrogen, Carlsbad, Calif.), 10 μM forskolin (Sigma, St. Louis, Mo.), 50 ng/mL brain-derived neurotrophic factor (BDNF; PeproTech, Rocky Hill, N.J.), 50 ng/mL ciliary neurotrophic factor (CNTF; Peprotech), and 50 ng/mL basic fibroblast growth factor (bFGF; PeproTech). A 96-well plate was coated with poly-d-lysine (Sigma) and laminin (Sigma), and RGC was placed at the rate of 5,000 cells per well for the 96-well place, 5,000 cells per each culture insert for microdish, or 15,000 cells per dish for compartmentalized culture, followed by incubating for at least 10 days before experimentation.
In the figure, Cant represents a non-treated group, Glu represents a group with 300 μM glutamic acid added, and +glial LP represents a group with 300 μM glutamate+glia-cell-derived lipoprotein containing apolipoprotein E added. Glial LP was added in the concentration of 1 μg cholesterol/mL. After treatment, the rate of apoptosis-like cells was computed by observing the aggregation of the nuclei (a: nuclear staining with Hoechst 33342) or the sustained impermeability of esterase activity/membrane (b: calcein AM/Propidium Iodide staining) in 24 hours.
The induction and detection of apoptosis in RGC were performed in the manner as described below. Specifically, RGC was washed twice with Hanks' balanced salt solution (HBSS) containing 2.4 mM CaCl2 and 20 mM HEPES, but not containing magnesium, and incubated at 37° C. for 2 hours in a medium prepared by adding 300 μM glutamate and 10 μM glycine to the above Hanks' balanced salt solution. After treatment with glutamate, RGC was incubated at 37° C. for 22 hours in a RGC culture medium containing no forskolin, BDNF, CNTF and bFGF. In order to detect apoptosis, RGC was stained with 1 μg/mL of Hoechst 33342 (346-07951, Dojindo, Kumamoto, Japan) or 1 μg/mL of calcein-AM/propidium iodide (341-07381, Dojindo). The fluorescence images were observed by Olympus IX71 microscope. The fragmented or aggregated nuclei stained with the above Hoechst reagent were counted as apoptotic nuclei, and round and smooth nuclei were counted as sound nuclei. As the sound nuclei were not stained with propidium iodide, the nuclei stained with propidium iodide were counted as apoptotic nuclei. More than 300 nuclei were counted in each group.
The apoptosis of RGC was measured in the following manner. The RGC subjected to the primary incubated was incubated two times at 37° C. for 15 minutes using Hanks' Balanced Salt Solution (HBSS) containing 2.4 mM CaCl2 and 20 mM 4-(2-hydroxyethyl)-pyperazine-1-ethanesulfonic acid (HEPES) but containing no magnesium and then washed. […], the magnesium was removed from the washing solution. Thereafter, the RGC was treated or not treated with […] (a co-activating agent for the NMDA receptor) in HBSS containing 2.4 mM CaCl2 and 20 mM HEPES (without magnesium) and then incubated at 37° C. for 2 hours. A control (HBSS containing 2.4 mM CaCl2 and 20 mM HEPES (without containing magnesium)) or the RGC treated or not treated with glutamic acid was incubated at 37° C. for 22 hours in the same medium as used for the RGC (without forskolin, brain-derived neurotrophic factor, ciliary neurotrophic factor and basic fibroblast growth factor). […]

As to “E-LP: reconstituted lipoprotein of 1-palmitoyl-2-oleyl-glycerophosphocoline, cholesterol and recombinant human apolipoprotein E, molar ratio 100:10:1 or 100:0:1”, the “RGC existence in Glast+/− and Glast−/− mice” value in assay [1] (1 μl of 1.5 μg protein/mL E-LP into vitreous body, three-week-old injected, six-week-old examined) is “recovery”. Further, in assay [2] (100 nM a2M, E-LP 100-3,000 ng protein/mL, Glu, Hoechst 24 hours), the “effect on the inhibitory effects of α2-macroglobulin on neuroprotection” value is on record as “inhibited”. In assay [2] (RGC incubated with E-LP 15 minutes before Glu), the “protection of RGC from Glu-induced neurotoxicity, dose dependence” value was “protected the RGC in a dose-dependent manner”.
For “LP: reconstituted lipoprotein of POPC, cholesterol and recombinant human apolipoprotein E3”, the “apoptosis of the retinal cells of GLAST knockout mouse” value in assay [1] (LP (100 ng protein/mL) into vitreous body at three weeks, eyeball removed at six weeks) was “inhibited apoptosis”. Besides, the “difference in neuroprotective effects between apoE isoforms in RGC treated with glutamic acid” value in assay [2] (100 ng protein/mL, 15 minutes before Glu) was “no difference”. For the same substance, the “apoptosis of retinal cells induced by glutamic acid (apoptosis-like cells)” value in assay [2] (added at 100 ng protein/mL, Hoechst 33342) was “inhibited the apoptosis”.
